Measured values: patent US5086054A, “Novel arylcycloalkanepolyalkylamines” (SRI International, priority 1990, dated 1992)
Entries after “also recorded” stand apart in the source; their conditions may differ. Where a name gives a salt, the structure may show the parent alone. Read-outs that look alike come from different tables or passages of the source.

How the values were obtained:
[1] = biological target: T1, SIGMA RECEPTOR (Cavia porcellus, UniProt Q60492); experiment: Sigma receptor binding assay ([3H]-d-SKF-10,047 displacement, brain membranes); set-up: species or system guinea-pig (male Hartley)
T1 construct: Two milliter aliquots of the brain membrane preparation, containing 1.7 mg of protein; tissue Pel-Freeze (Rogers, Arkansas); host or cells: guinea-pig brains plus cerebella, membranes
T1 sequence (Q60492 whole entry): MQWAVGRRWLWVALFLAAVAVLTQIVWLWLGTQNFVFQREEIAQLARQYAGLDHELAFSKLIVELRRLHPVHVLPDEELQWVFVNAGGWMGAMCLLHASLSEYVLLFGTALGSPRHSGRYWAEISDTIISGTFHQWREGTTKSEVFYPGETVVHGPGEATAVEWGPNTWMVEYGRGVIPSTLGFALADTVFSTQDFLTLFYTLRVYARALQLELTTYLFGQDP
Description: (§1) This example illustrates testing of compounds in receptor binding assays.
(§2) Frozen brains from male Hartley guinea-pigs were obtained from Pel-Freeze (Rogers, Arkansas).
(§3) The brains plus cerebella were homogenized in 10 volumes (v/w) of 0.1M, pH 7.4, ice-cold Tris-HCl buffer with a Brinkmann polytron at setting 4 for 20 seconds. The homogenates were centrifuged at 20,000×g for 20 minutes at 4° C. The pellets were suspended in 10 volumes of ice-cold water and, after sitting on ice for 10 minutes, were centrifuged 30 minutes at 20,000×g at 4° C. The resulting pellets were resuspended in the above Tris buffer in ratio 1:100 (w/v) for σ receptor assays or in 5 mM Tris-HCl having pH 7.4, for PCP receptor assays. The final suspension was homogenized with a dounce glass-glass tissue grinder Wheaton "200", at small clearance (B), with three strokes before use. Two milliter aliquots of the brain membrane preparation, containing 1.7 mg of protein, were incubated in quadruplicate for one hour at 23° C. with competing mixture of ligand and radioligand. For σ receptors, [^3 H]-d-SKF-10,047, 2 nM was used. For PCP receptors, [^3 H] TCP [^3 H]-1-[1-(2-thienyl)cyclohexyl]piperidine), 1 nM was used. The nonspecific bindings were defined by 0.1 mM d-SKF-10,047 and 0.1 mM phencyclidine respectively for σ and PCP receptors. After incubation, free ligand was separated from bound ligand by rapid filtration through Whatman GF/C filters. The filters had been soaked before use in isoamyl alcohol-saturated water to prevent nonspecific [^3 H]-d-SKF-10,047 binding to the filter. In the PCP receptor assay, the filter was soaked in 0.5% polyethylenimine to reduce the filter binding of [^3 H]-TCP. After filtration, the trapped tissue was washed three times with 4 ml aliquots of 0.1 M ice-cold Tris buffer at pH 7.4 for σ receptors and 5 mM, ice-cold Tris buffer pH 7.4 for PCP receptors. The filters were transferred to 5 ml of liquid scintillation fluid and the retained radioactivity was measured by liquid scintillation spectrometry.

[2] = tested on: PCP RECEPTOR; experiment: PCP receptor binding assay ([3H]-TCP displacement, brain membranes); set-up: species or system guinea-pig (male Hartley)
Description: as §1, §2, §3
(§4) Programs in Biomed. 17:107 (1983)].

[3] = biological target: α1 -ADRENOCEPTOR; experiment: α1-adrenoceptor binding ([3H]-prazosin); set-up: species or system guinea-pig
Source text: (§5) This example illustrates the testing of compounds of this invention in dopamine D2, 5-HT2, muscarinic acetylcholine, α1 -adrenoceptor and β-adrenoceptor receptor assays. The receptor assay methods are described in Eur. J. Pharmacol., 155:345 (1988) except that in the β-adrenoceptor assay, [^125 I]-pindolol was used instead of [^3 H] dihydroalprenolol.
(§6) In this study, guinea-pig brains were used for binding studies. Homogenization and centrifugation procedures for preparation of brain membranes for each receptor assay were the same as described in Example 4 for the σ and PCP receptors. However, brain regions, tissue contents, and buffers may differ depending on the assay. Conditions of binding assays for various receptors were as follows:
For α1 -adrenoceptor assay, [^3 H]-prazosin (0.4 nM) was incubated in a 1 ml assay (50 mM Tris-HCl, pH 7.4) for 1 hour at 23° C. with membranes from 1 mg of whole brain minus cerebellum.
(§7) Filtration and washing conditions were the same as described above for the σ receptor assay. Nonspecific binding for each receptor was defined by the inclusion of 1 μM haloperidol for dopamine D2, 1 μM haloperidol for 5-HT2, 10 μM scopolamine for muscarinic acetylcholine, 10 μM prazosin for α1 -adrenoceptor, and 0.2 μM 1-propranolol for β-adrenoceptor. Retained radioactivity was measured by liquid scintillation spectrometry except for ^125 I-pindolol which was measured by the LKB gamma counter.
as §4

[4] = biological target: 5-HT2 (Cavia porcellus, UniProt A0A286Y537); experiment: 5-HT2 receptor binding; set-up: species or system guinea-pig
Sequence of 5-HT2 (A0A286Y537 1-470): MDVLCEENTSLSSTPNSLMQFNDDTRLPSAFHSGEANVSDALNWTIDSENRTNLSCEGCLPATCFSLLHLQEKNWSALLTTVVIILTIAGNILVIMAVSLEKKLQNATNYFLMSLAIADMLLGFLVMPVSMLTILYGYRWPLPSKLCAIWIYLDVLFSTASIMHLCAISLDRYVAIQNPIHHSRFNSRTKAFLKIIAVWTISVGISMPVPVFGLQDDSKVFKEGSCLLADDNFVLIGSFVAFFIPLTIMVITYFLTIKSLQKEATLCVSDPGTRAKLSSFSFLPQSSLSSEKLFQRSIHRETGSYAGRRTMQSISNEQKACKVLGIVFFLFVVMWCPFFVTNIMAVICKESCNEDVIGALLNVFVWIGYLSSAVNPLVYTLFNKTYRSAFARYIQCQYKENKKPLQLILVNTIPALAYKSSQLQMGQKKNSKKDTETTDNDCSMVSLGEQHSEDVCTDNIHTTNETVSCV
Source text: as §5, §6, §7, §4

[5] = tested on: MUSCARINIC ACETYLCHOLINE; format: binding, guinea-pig
Source text: as §5, §6
For muscarinic acetylcholine assay, […]) [^3 H]-quinuclidinyl benzylate ([^3 H]-QNB) was incubated in a 2 ml assay (50 mM Tris-HCl, pH 7.4) for 2 hours at 23° C. with membranes from 2 mg of whole brain minus cerebellum.
as §7, §4

[6] = biological target: β-ADRENOCEPTOR; experiment: β-adrenoceptor binding ([125I]-pindolol); set-up: species or system guinea-pig
Source text: as §5, §6
For β-adrenoceptor, [^125 I]-pindolol (0.05 nM) was incubated in a 1 ml assay (50 mM Tris-HCl, pH 7.4) for 1 hr at 23° C. with membranes from 1 mg of whole brain minus cerebellum.
as §7, §4

[7] = tested on: σ receptors; details: literature; cited from earlier work
[8] = Table 1, mean ± error (n), read-out: SIGMA RECEPTOR IC50
[9] = Table 1, slope of dose response curve
[10] = Table 1, mean ± error (n), read-out: PCP RECEPTOR IC50
[11] = Table 2, aryl ring substituents, read-out: PCP RECEPTOR IC50
[12] = SIGMA RECEPTOR IC50, Table 1, mean ± error (n)

c1ccc(C2(CN3CCOCC3)CCCCC2)cc1 [Compound 11]
potency at σ receptors (in words) [1]: increased potency for σ receptors
IC50 [1, 8]: 0.71 µM
SIGMA RECEPTOR SLOPE [1, 9]: 0.60 ± 0.03
SIGMA RECEPTOR SLOPE ([1]; Table 2): 0.60 ± 0.03
potency at PCP receptors (in words) [2]: inactive in the PCP receptor assay
IC50 [2, 10]: > 25000 nM
IC50 [2, 11]: > 25000 nM

C[N+]1(CCOC(=O)C2(c3ccccc3)CCCCC2)CCCCC1 [Compound 4]
IC50 [1, 8]: > 25 µM
potency at PCP receptors (in words) [2]: reduced the potency in the PCP receptor assay; also recorded: drastically reduced potency for both σ and PCP receptors; also recorded: inactive in the PCP assay; also recorded: did not increase potency for PCP receptors
IC50 [2, 10]: > 25000 nM

O=C(OCCN1CCOCC1)C1(c2ccccc2)CCCCC1 [Compound 12, 2-(4-Morpholino)ethyl 1-phenylcyclohexane-1-carboxylate hydrochloride]
IC50 ([3]; Table 4, IC50 and nM only stated in text, read-out: α1 -ADRENOCEPTOR): > 100000 nM
IC50 ([3]; read-out: potency for α1-adrenoceptor): > 100000 nM
SIGMA RECEPTOR SLOPE [1, 9]: 0.48 ± 0.05
potency at σ receptors (in words) ([1]; hydrochloride): σ receptor potency increased; also recorded: very potent in the σ assay; also recorded: very high
σ potency compared with other known σ ligands (in words) ([1]; vs haloperidol, DTG, (+)-3-PPP, hydrochloride): not as great as other known σ ligands, such as for example haloperidol; also recorded: comparable to other σ ligands such a DTG and (+)-3-PPP
IC50 ([4]; Table 4, IC50 and nM only stated in text, read-out: 5-HT2): 18700 nM
IC50 ([4]; read-out: potency for 5-HT2): 18700 nM
more potent at σ receptors than at 5-HT2 receptors ([4]; selectivity σ vs 5-HT2): ≥ 400 fold
IC50 [2, 10]: > 100000 nM
IC50 ([2]; Table 4, IC50 and nM only stated in text, read-out: PCP): > 100000 nM
potency at PCP receptors (in words) ([2]; hydrochloride): inactive in the PCP assay; also recorded: very weak or inactive in the PCP assay; also recorded: negligible; also recorded: low potency at PCP receptors; also recorded: relative inactivity
IC50 ([2]; read-out: IC50 / potency for PCP receptors): < 100000 nM
IC50 ([5]; Table 4, IC50 and nM only stated in text, read-out: MUSCARINIC ACETYLCHOLINE): 14000 nM
IC50 ([5]; read-out: potency (IC50) at muscarinic acetylcholine receptor): 14000 nM
more potent at σ receptors than at muscarinic acetylcholine receptors ([5]; selectivity σ vs muscarinic): at least 300 fold
IC50 ([6]; Table 4, IC50 and nM only stated in text, read-out: β-ADRENOCEPTOR): > 200000 nM
IC50 ([6]; read-out: potency for β-adrenoceptor): > 200000 nM

COc1cccc(C2(CN(C)C)CCCCC2)c1 [Compound 42]
SIGMA RECEPTOR SLOPE ([1]; Table 2): 0.70 ± 0.06
IC50 ([1]; Table 2, aryl ring substituents, read-out: SIGMA RECEPTOR IC50): 2.85 µM
IC50 [2, 11]: > 25000 nM

C=CCN1CC[C@@]23CCCC[C@@H]2[C@@H]1Cc1ccc(O)cc13 [dextrallorphan]
affinity / binding at σ receptors (in words) [7]: bind to σ receptors

O=C(OCCN1CCCC1)C1(c2ccccc2)CCCC1 [Compound 46]
SIGMA RECEPTOR SLOPE ([1]; Table 3): 0.68 ± 0.06
IC50 ([1]; Table 3, cycloalkyl ring size, read-out: SIGMA RECEPTOR IC50): 0.454 µM
IC50 ([2]; Table 3, cycloalkyl ring size, read-out: PCP RECEPTOR IC50): > 25000 nM

CCN(CC)C1(c2ccccc2)CCCCC1 [Compound 13, N,N-diethyl-1-phenylcyclohexylamine, reference compound]
IC50 [1, 12]: 0.573 µM
SIGMA RECEPTOR SLOPE [1, 9]: 0.40 ± 0.07
IC50 [2, 10]: 331 ± 34 nM

c1ccc(C2(N3CCCC3)CCCCC2)cc1 [Compound 5, 1-(1-phenylcyclohexyl)pyrrolidine, reference compound]
IC50 [1, 12]: 7.73 µM
SIGMA RECEPTOR SLOPE [1, 9]: 0.83 ± 0.06
IC50 [2, 10]: 110 ± 6 nM

Clc1cccc(C2(CN3CCCCC3)CCCCC2)c1 [Compound 25]
potency at σ receptors (in words) [1]: most potent at σ receptors
selectivity for σ receptors (in words) [1]: least specific
SIGMA RECEPTOR SLOPE ([1]; Table 2): 0.69 ± 0.05
IC50 ([1]; read-out: IC50 at σ receptors): 0.071 µM
potency at PCP receptors (in words) [2]: showed some potency at PCP receptors
IC50 [2, 11]: 1830 nM
